Assays:
SpCas9 [1] = molecular target: T1, SpCas9 (Streptococcus pyogenes serotype M1, UniProt Q99ZW2); test: eGFP disruption assay, SpCas9, U2OS.eGFP.PEST cells; format: cell-based; conditions: for Z score Rep1 / Normalized Z rep1 / % GFP+, Rep 1: replicate 1; for SpCas9 eGFP disruption Rep1: replicate 1, raw readout; for Z socre Rep2 / Normalized Z rep2 / % GFP+, Rep 2: replicate 2; for SpCas9 eGFP disruption Rep2: replicate 2, raw readout; for Activity in eGFP-disruption assay: result in words, relative to BRD7586
Method in brief: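 U2OS.eGFP.PEST cells nucleofected with 300 ng SpCas9 plasmid plus 30 ng eGFP-targeting gRNA plasmid, or with SpCas9 RNP (10 pmol protein, 12 pmol gRNA). Cells then incubated 24 h with compound (20 μM in screening). Inhibition is read as rescue of eGFP fluorescence in paraformaldehyde-fixed, nuclear-stained cells.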

SpCas9 [2] = molecular target: T1, SpCas9; test: HiBiT knock-in assay, SpCas9, HEK293T cells; format: cell-based; conditions: for Activity in HiBiT knock-in assay: result in words, relative to BRD7586
Description: Primary and secondary screening. The primary screen assayed a selection of unique chemical scaffolds derived from commercially available compounds and known bioactive molecular libraries (Table 7). Auto-fluorescent compounds were removed by a counter screen. Overall, the CAA was used to assay 122,409 small molecules with over 2,500 unique chemical scaffolds (FIG. 64F, Table 7). Of these compounds, 547 were selected as hits (Z score >3 in both replicates) for testing in orthogonal cell-based secondary assays. Hits were tested in duplicate in an eGFP disruption assay, wherein U2OS.eGFP.PEST cells^33 transfected with SpCas9 plasmid and eGFP-targeting gRNA plasmid were incubated with 20 μM of the compounds. In this assay, any compound that inhibited SpCas9 would rescue the loss of eGFP fluorescence. Here, toxic and auto-fluorescent compounds with a high GFP signal in cells were removed as false positives. […] Next, Applicants tested the 15 compounds in a luminescence-based gain-of-signal HiBiT knock-in assay, which involves SpCas9-mediated homology-directed tagging of GAPDH with a short peptide that luminesces upon complementation with a subunit derived from nanoluciferase.^34 Complementarily, the eGFP-disruption assay is fluorescence-based and involves error-prone DNA repair. As a counter-screen to remove false positives caused by cell death (viability <80%), the cell viability was measured after incubation.
Approximately 400,000 HEK293T cells were nucleofected with 400 ng of SpCas9 plasmid, 40 ng of GAPDH-targeting gRNA plasmid, and 40 pmol of single-strand oligodeoxynucleotide (ssODN) using SF Cell Line 4D-Nucleofector X Kit (Lonza) following the pulse program of DS-150. For RNP-based genome editing, 10 pmol of Cas9 and 12 pmol of gRNA were mixed and incubated for 5 min. Then, 20 pmol of ssODN was added. Cells were nucleofected with the resulting mixture using the same pulse program. Cells were then transferred to a 96-well plate at the density of 35,000 cells per well, and incubated with indicated amount of compounds for 24 h. Cell viability was measured using PrestoBlue reagent (Thermo) with a SpectraMax M5 (Molecular Devices) at the excitation and emission wavelength of 544 nm and 590 nm, respectively. Next, luminescence measurement was performed using the Nano-Glo HiBiT Lytic Detection System (Promega) according to the manufacturer's protocol with an EnVision Multilabel Plate Reader (PerkinElmer) at the integration time of 0.5 s per well. The resulting luminescence signals were normalized based on the cell viability.^34

SpCas9 [3] = molecular target: T1, SpCas9; test: Strand displacement assay (SDA) / cumulative activity assay (CAA), SpCas9 primary screen; format: biochemical; conditions: Primary Screen (150 min); for Normalized Z score 1: replicate 1; for Normalized Z score 2: replicate 2
Method in brief: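 SpCas9:gRNA RNP in 20 mM Tris-HCl pH 7.5, 100 mM KCl, 5 mM MgCl2 was used at 10 nM (2× stock) with Alexa Fluor 647-labelled substrate and excess quencher strand (1 nM and 5 nM, 2× stocks). Fluorescence was read after 2.5 h at 37 °C, where cleavage lets the quencher strand anneal.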

[4] = Cas9 = lower control, Ctrl = upper control
[5] = normalized, lower control about 0, upper control about 1

T1 sequence (Q99ZW2 whole entry): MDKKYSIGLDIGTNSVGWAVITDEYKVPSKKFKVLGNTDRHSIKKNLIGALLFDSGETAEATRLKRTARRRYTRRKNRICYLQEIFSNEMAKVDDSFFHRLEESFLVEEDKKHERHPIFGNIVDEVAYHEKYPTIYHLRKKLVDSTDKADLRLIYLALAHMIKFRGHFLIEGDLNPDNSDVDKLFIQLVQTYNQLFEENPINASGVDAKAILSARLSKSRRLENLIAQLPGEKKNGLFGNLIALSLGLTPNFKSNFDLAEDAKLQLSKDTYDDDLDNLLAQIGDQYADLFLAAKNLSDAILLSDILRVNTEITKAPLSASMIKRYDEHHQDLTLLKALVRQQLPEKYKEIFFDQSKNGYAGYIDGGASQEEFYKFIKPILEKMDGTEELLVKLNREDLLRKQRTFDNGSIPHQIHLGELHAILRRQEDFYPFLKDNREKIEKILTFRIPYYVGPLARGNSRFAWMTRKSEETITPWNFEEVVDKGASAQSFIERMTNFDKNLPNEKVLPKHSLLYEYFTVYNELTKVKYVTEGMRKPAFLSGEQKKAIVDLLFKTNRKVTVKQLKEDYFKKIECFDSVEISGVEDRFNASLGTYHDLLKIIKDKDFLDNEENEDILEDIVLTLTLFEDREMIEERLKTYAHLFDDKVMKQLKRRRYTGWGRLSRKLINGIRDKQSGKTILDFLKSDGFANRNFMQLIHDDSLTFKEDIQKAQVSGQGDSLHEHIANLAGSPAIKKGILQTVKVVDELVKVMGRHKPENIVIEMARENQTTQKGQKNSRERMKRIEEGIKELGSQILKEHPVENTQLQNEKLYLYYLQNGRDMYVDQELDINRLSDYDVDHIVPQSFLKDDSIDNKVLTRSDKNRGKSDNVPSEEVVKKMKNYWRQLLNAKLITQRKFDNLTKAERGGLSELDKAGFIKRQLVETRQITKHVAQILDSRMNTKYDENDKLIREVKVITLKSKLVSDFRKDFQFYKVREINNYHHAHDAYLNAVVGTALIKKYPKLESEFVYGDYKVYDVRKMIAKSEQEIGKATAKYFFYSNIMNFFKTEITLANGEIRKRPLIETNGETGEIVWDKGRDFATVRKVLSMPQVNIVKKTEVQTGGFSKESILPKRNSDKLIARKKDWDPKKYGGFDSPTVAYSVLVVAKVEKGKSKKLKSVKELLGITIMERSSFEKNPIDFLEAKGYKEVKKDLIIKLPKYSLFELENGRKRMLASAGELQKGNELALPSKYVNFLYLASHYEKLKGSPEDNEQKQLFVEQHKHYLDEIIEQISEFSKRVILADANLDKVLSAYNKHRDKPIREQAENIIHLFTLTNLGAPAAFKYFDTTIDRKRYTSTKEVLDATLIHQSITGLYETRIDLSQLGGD

| SMILES | eGFP disruption-% inhibition (SpCas9 [1]) | Z score Rep1 (SpCas9 [1]) | SpCas9 eGFP disruption Rep1 (SpCas9 [1]; [4]) | Normalized Z rep1 (SpCas9 [1]; [5]) | Z socre Rep2 (SpCas9 [1]) | SpCas9 eGFP disruption Rep2 (SpCas9 [1]; [4]) | Normalized Z rep2 (SpCas9 [1]; [5]) | Hibit assay-% inhibition (SpCas9 [2]) | avg z score primary (SpCas9 [3]) | Normalized Z score 1 (SpCas9 [3]) | Normalized Z score 2 (SpCas9 [3]) | % GFP+, Rep 1 (SpCas9 [1]; eGFP assay) | Z score Rep1 (SpCas9 [1]; eGFP assay) | % GFP+, Rep 2 (SpCas9 [1]; eGFP assay) | further results |
| --- | --- | --- | --- | --- | --- | --- | --- | --- | --- | --- | --- | --- | --- | --- | --- |
| COc1ccc(Cc2nnc3sc(Cc4ccc(OC)c(OC)c4)nn23)cc1 [Compound D727-0165] | 25.03% | 1.09 | 70.62 | 0.15 | −0.43 | 61.783 | −0.05 | 22.01% |  |  |  |  |  |  |  |
| O=C(CCS(=O)(=O)c1ccccc1)Nc1nc(-c2ccncc2)cs1 [Compound G786-1264] | 41.72% | 3.83 | 82.717 | 0.37 | 9.69 | 83.951 | 0.42 | 72.63% | 5.95 | 0.06 | 0.06 | 82.72% | 3.83 | 83.95% | Average Normalized Z score (SpCas9 [3]): 0.06 |
| O=C(CCSc1ccc(Cl)cc1)Nc1nc(-c2ccc(Br)cc2)cs1 [BRD0033] |  |  |  |  |  |  |  |  |  |  |  |  |  |  | Activity in eGFP-disruption assay (SpCas9 [1]): inactive; Activity in HiBiT knock-in assay (SpCas9 [2]): inactive |
| O=C(CCS(=O)(=O)c1ccc(Cl)cc1)Nc1nc(-c2ccncc2)cs1 [Compound G786-1325] | 56.65% | 5.65 | 86.012 | 0.54 | 12.44 | 86.243 | 0.54 | 97.09% | 4.35 | 0.05 | 0.04 | 86.01% | 5.65 | 86.24% | Average Normalized Z score (SpCas9 [3]): 0.04 |
| NC1=C(c2nc3ccccc3s2)C(=O)CN1N=Cc1ccc(-c2ccc(S(=O)(=O)Nc3ncccn3)cc2)o1 [Compound T5371551] | 22.88% | 2.50 | 64.278 | 0.17 | 11.57 | 76.754 | 0.56 | −12.66% | 9.04 | 0.61 | 0.58 | 64.28% | 2.50 | 76.75% | Average Normalized Z score (SpCas9 [3]; average of replicates): 0.60 |
| O=C(CCS(=O)(=O)c1ccc(Cl)cc1)Nc1nc(-c2ccccn2)cs1 [Compound G786-1324] | 32.94% | 3.12 | 81.427 | 0.30 | 4.86 | 79.939 | 0.21 | 94.5% | 4.44 | 0.05 | 0.04 | 81.43% | 3.12 | 79.94% | Average Normalized Z score (SpCas9 [3]): 0.05 |
| c1ccc(-c2nnc3sc(-c4cc5ccccc5o4)nn23)nc1 [Compound D727-0535] | 18.61% | −0.99 |  |  | −2.07 |  |  | 18.11% |  |  |  |  |  |  | Normalized Z rep1 (SpCas9 [1]): −0.14; SpCas9 eGFP disruption Rep1 (SpCas9 [1]): 63.743; Normalized Z rep2 (SpCas9 [1]): −0.22; SpCas9 eGFP disruption Rep2 (SpCas9 [1]): 56.828 |
| O=C(CSc1nccn1-c1cccc(F)c1)N1CCN(c2ccc(O)cc2)CC1 [Compound T5535170] | 27.53% | 3.93 | 67.964 | 0.28 | 5.41 | 65.339 | 0.26 | 68.25% | 4.37 | 0.28 | 0.33 | 67.96% | 3.93 | 65.34% | Average Normalized Z score (SpCas9 [3]; average of replicates): 0.31 |
| COc1ccc(Cc2nn3c(-c4cccnc4)nnc3s2)cc1OC [Compound D727-0069] | 24.03% | −2.26 |  |  | −1.55 |  |  | 8.56% |  |  |  |  |  |  | Normalized Z rep1 (SpCas9 [1]): −0.31; SpCas9 eGFP disruption Rep1 (SpCas9 [1]): 59.543; Normalized Z rep2 (SpCas9 [1]): −0.17; SpCas9 eGFP disruption Rep2 (SpCas9 [1]): 58.398 |
| Cc1nc2ccccc2c(C)c1CC(=O)N1CCN(c2ccc(O)cc2)CC1 [Compound T5461482] | 24.48% | 3.50 | 66.842 | 0.24 | 6.37 | 67.113 | 0.31 | 36.6% | 3.23 | 0.09 | 0.10 | 66.84% | 3.50 | 67.11% | Average Normalized Z score (SpCas9 [3]; average of replicates): 0.10 |
| O=C(CCSc1ccc(Cl)cc1)Nc1nc(-c2ccncc2)cs1 [Compound F2537-0908] |  |  |  |  |  |  |  |  |  |  |  |  |  |  | Activity in eGFP-disruption assay (SpCas9 [1]): significantly lower inhibitory activity; Activity in HiBiT knock-in assay (SpCas9 [2]): significantly lower inhibitory activity |

— patent publication US20240115557A1, “INHIBITORS OF RNA-GUIDED NUCLEASES AND USES THEREOF” (The Brigham and Women's Hospital, Inc., priority 2022, published 2024)
